Reference: ChEMBL document CHEMBL1134726, “SAR studies of novel 5-substituted 2-arylindoles as nonpeptidyl GnRH receptor antagonists” (Bioorg Med Chem Lett, 2001)
pIC50: −log10 of the molar value.

Molecular target: T1, Gonadotropin-releasing hormone receptor (Rattus norvegicus, UniProt P30969)
T1 sequence (P30969 whole entry): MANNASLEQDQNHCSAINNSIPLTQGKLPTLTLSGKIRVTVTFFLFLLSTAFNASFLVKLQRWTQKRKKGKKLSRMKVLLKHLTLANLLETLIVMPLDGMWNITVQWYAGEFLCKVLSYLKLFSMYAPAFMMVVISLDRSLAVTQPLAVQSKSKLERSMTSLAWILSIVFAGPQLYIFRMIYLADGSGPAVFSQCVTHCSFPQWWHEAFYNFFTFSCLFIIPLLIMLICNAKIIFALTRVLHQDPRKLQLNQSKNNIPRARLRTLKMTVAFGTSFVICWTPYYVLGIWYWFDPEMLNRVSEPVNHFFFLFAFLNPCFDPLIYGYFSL
Assay: Binding affinity to rat Gonadotropin-releasing hormone receptor.

| SMILES | pIC50 |
| --- | --- |
| Cc1cc(C)cc(-c2[nH]c3ccc(OC(=O)N4CCN(S(=O)(=O)C(C)C)CC4)cc3c2CCNCCCCc2ccc(O)cc2)c1 | 8.15 |
| Cc1cc(C)cc(-c2[nH]c3ccc(OC(=O)N4CCCCC4)cc3c2CCNCCCCc2ccc(O)cc2)c1 | 7.49 |
| Cc1cc(C)cc(-c2[nH]c3ccc(OC(=O)N4CCN(S(C)(=O)=O)CC4)cc3c2CCNCCCCc2ccc(O)cc2)c1 | 8.22 |
| Cc1cc(C)cc(-c2[nH]c3ccc(OCc4ccccc4)cc3c2CCNCCCCc2ccc(O)cc2)c1 | 7.00 |
| CC(=O)N1CCN(C(=O)Oc2ccc3[nH]c(-c4cc(C)cc(C)c4)c(CCNCCCCc4ccc(O)cc4)c3c2)CC1 | 7.52 |
| CNC(=O)Oc1ccc2[nH]c(-c3cc(C)cc(C)c3)c(CCNCCCCc3ccc(O)cc3)c2c1 | 7.52 |
| Cc1cc(C)cc(-c2[nH]c3ccc(OC(=O)N(C)C)cc3c2CCNCCCCc2ccc(O)cc2)c1 | 7.52 |
| CCNC(=O)Oc1ccc2[nH]c(-c3cc(C)cc(C)c3)c(CCNCCCCc3ccc(O)cc3)c2c1 | 7.80 |
| Cc1cc(C)cc(-c2[nH]c3ccc(OC(=O)N4CCOCC4)cc3c2CCNCCCCc2ccc(O)cc2)c1 | 7.70 |
| CCCNC(=O)Oc1ccc2[nH]c(-c3cc(C)cc(C)c3)c(CCNCCCCc3ccc(O)cc3)c2c1 | 7.52 |
| CCS(=O)(=O)N1CCN(C(=O)Oc2ccc3[nH]c(-c4cc(C)cc(C)c4)c(CCNCCCCc4ccc(O)cc4)c3c2)CC1 | 8.40 |
| COc1ccc2[nH]c(-c3cc(C)cc(C)c3)c(CCNCCCCc3ccc(O)cc3)c2c1 | 7.40 |
| Cc1cc(C)cc(-c2[nH]c3ccc(OC(=O)N4CCN(C)CC4)cc3c2CCNCCCCc2ccc(O)cc2)c1 | 7.60 |
| CCCC(=O)N1CCN(C(=O)Oc2ccc3[nH]c(-c4cc(C)cc(C)c4)c(CCNCCCCc4ccc(O)cc4)c3c2)CC1 | 7.52 |
| Cc1cc(C)cc(-c2[nH]c3ccc(OC(=O)N4CCN(CC(N)=O)CC4)cc3c2CCNCCCCc2ccc(O)cc2)c1 | 7.57 |
| CCOC(=O)N1CCN(C(=O)Oc2ccc3[nH]c(-c4cc(C)cc(C)c4)c(CCNCCCCc4ccc(O)cc4)c3c2)CC1 | 7.49 |
| Cc1cc(C)cc(-c2[nH]c3ccc(OC(=O)N4CCNCC4)cc3c2CCNCCCCc2ccc(O)cc2)c1 | 7.00 |
| CCC(=O)N1CCN(C(=O)Oc2ccc3[nH]c(-c4cc(C)cc(C)c4)c(CCNCCCCc4ccc(O)cc4)c3c2)CC1 | 7.82 |
| CCCS(=O)(=O)N1CCN(C(=O)Oc2ccc3[nH]c(-c4cc(C)cc(C)c4)c(CCNCCCCc4ccc(O)cc4)c3c2)CC1 | 7.92 |
